From patent publication US20260125359A1, “HETEROARYL COMPOUNDS AS MULTI-TARGET PROTEIN KINASE INHIBITORS” (FUJIAN HAIXI PHARMACEUTICALS CO., LTD., priority 2023, published 2026)

Test system: M-NFS-60 cells
Assay: M-NFS-60 cell in vitro assay (CCK, 48 h, M-CSF factor medium)
Assay type: cell-based
Details: M-NFS-60 cells; read-out: M-NFS-60cellassay IC50
Experimental: To determine the inhibitory activity of compounds on M-NFS-60 cells.
• M-NFS-60 cell line (ATCC, Cat. No.: CRL-1838) • RPMI-1640 medium (Gibco, domestic subpackage, Cat. No.: C11875500BT) • Recombinant Mouse CSF1/M-CSF (Sino Biological Inc., Cat. No.: 51112-MNAH) • PAN/Serum (BioTECH, Cat. No.: P30-2602) • Trypsin/0.05% Trypsin-EDTA (Gibco, Cat. No.: 25300-062) • 0.4% Trypan Blue (Sigma, Cat. No.: T8154-20 ml) • Penicillin-Streptomycin (Hyclone, Cat. No.: SV30010) • DMSO (Solarbio, Cat. No.: D8371) • PBS (Solarbio, Cat. No.: P1020) • CCK (AbMole BioScience, Cat. No.: M4839-500Tests)
• 1) M-CSF factor stock solution: take 10 μg of powdered m-CSF factor, add 0.4 ml of saline, formulate 25 ug/ml and store at −80° C. • 2) M-CSF factor (25 ng/ml) medium: • 1640 (Gibco)+10% PAN+100×Penicillin-Streptomycin+100×M-CSF stock solution • 3) Complete medium: • 1640 (Gibco)+10% PAN+100×Penicillin-Streptomycin • 4) Compound preparation: 2-3 mg of the compound was added to DMSO to formulate a 30 mM stock solution, −80° C. refrigerator storage
• 1) Cell resuscitation: the frozen cells in the cryovial were thawed rapidly by shaking in a 37° C. water bath, then 4 mL of medium was added. After mixing evenly, they were centrifuged at 125×g for 5 min, and the supernatant was discarded. The cells were resuspended and transferred to the culture flasks, and were cultured in a 5% CO2 fully saturated humidity incubator. • 2) Cell passaging: M-NFS-60 cells are semi-suspension cells, which were collected directly in a 15 mL centrifuge tube, centrifuged at 125×g for 5 min. and the supernatant was discarded. The cells were resuspended and passaged into new culture flasks at a ratio of 1:5 to 1:10. • 3) After the newly resuscitated cells were passaged 1-2 times for cell stabilization, compound inhibition assays were started when the cells were in the logarithmic growth phase. • (a) Cell collection and counting: the same as the cell passaging step, centrifuge in two tubes, one tube with M-CSF factor medium to resuspend the cells, the other tube with complete medium to resuspend the cells. Take 10 μL of cell suspension in each tube, and count the cells by Tepan blue staining. • (b) Dilute the cell solution according to the concentration of inoculated cells respectively, the concentration of M-NFS-60 cells inoculated with factor was 5.56×10^4 cells/mL, and the concentration of inoculated without factor was 5×10^4 cells/mL. • (c) Seed plate: 384 well plate inoculated with M-NFS-60 cells, 36 uL/well, triplicate wells, the number of inoculated cells was equivalent to 2000 cells/well, set with blank control, factor free negative control, normal control, DMSO control and experimental wells. The cells were placed in a 5% CO2 fully saturated humidity incubator for 4 h. • (d) Sampling compounds: 96 well plates were used for compound preparation. The compound solution prepared in advance was diluted to corresponding gradient concentration with DMSO. An appropriate amount of the diluted solution in the previous step was added to an equal volume of factor containing medium. The 96 well plates were centrifuged at 1000 rpm for 5 min, which played the role of defoaming and spinning down droplets and condensation. Remove the 384 well plate from the incubator, add the diluted compound solution into each well sequentially, 4 μL/well; DMSO wells and normal wells were added with corresponding factor containing medium, 4 μL/well. Then it was put into CO2 incubator for 48 h. • (e) After incubation for 48 h, CCK was added to each well, 4 uL, and the plates were placed in the incubator for another 2 h, and then the OD (optical density) value at 450 nm was measured by microplate reader.
The IC50 values for each test compound were fitted using professional graphing and analysis software.

With Cc1cccc(C(=O)Nc2c(F)ccc3c2CC[C@@H]3Nc2cncc(-c3cnn(C)c3)c2)c1 [Compound 46b] as the compound, how does the IC50 read?
The IC50 was 50 to 200 nM.

How did the IC50 turn out when CN(C)C(=O)c1cccc2c1CC[C@@H]2Nc1cncc(-c2cnn(C)c2)n1 [Compound 27d] was run?
The IC50 was over 500 nM.

With Cn1cc(-c2cncc(O[C@H]3CCc4c(C(=O)Nc5ccc6c(c5)CNC6)cccc43)c2)cn1 [Compound 19u] as the compound, how does the IC50 read?
Its IC50 is over 500 nM.

With Cn1cc(-c2cncc(N[C@H]3CCc4c(C(=O)NN5CCCCC5)cccc43)n2)cn1 [Compound 27j] as the compound, how does the IC50 read?
Its IC50 is over 500 nM.

Which IC50 does the source give for Cn1cc2ncc(N[C@H]3CCc4c(Nc5noc(C(C)(C)C)n5)cccc43)cc2n1 [Compound 93i] here?
The IC50 was under 50 nM.

Which IC50 does the source give for Cn1cc(-c2cncc(NC3CCc4c(NC(=O)c5ccc6c(c5)OC(F)(F)O6)cccc43)c2)cn1 (stereo not drawn) [Compound 9, 2,2-difluoro-N-(1-((5-(1-methyl-1H-pyrazol-4-yl)pyridin-3-yl)amino)-2,3-dihydro-1H-inden-4-yl)benzo[d][1,3]dioxole-5-carboxamide] here?
Its IC50 is 50 to 200 nM.

For Cn1cc(-c2cnc(N)c(O[C@H]3CCc4c(NC(=O)c5csc6ccccc56)cccc43)c2)cn1 [Compound 3d], which IC50 is on record?
Its IC50 is under 50 nM.

Which IC50 does the source give for Cn1cc(-c2cncc(N[C@H]3CCc4c(C(=O)NC5CCC(F)(F)CC5)cccc43)n2)cn1 [Compound 27f] here?
The IC50 was under 50 nM.

With CN1CCc2cc(NC(=O)c3cccc4c3CC[C@@H]4Oc3cncc(-c4cnn(C)c4)c3)ccc2C1 [Compound 19i] as the compound, how does the IC50 read?
The IC50 was 50 to 200 nM.

For Cn1cc(-c2cncc(N[C@H]3CCc4c(Nc5cc(C(C)(C)C)no5)cccc43)c2)cn1 [Compound 42n], which IC50 is on record?
The IC50 was 50 to 200 nM.

Which IC50 does the source give for COc1ccc(F)c(NC(=O)c2cccc3c2CC[C@@H]3Oc2cnc3cn(C)nc3c2)c1 [Compound 76ay] here?
The IC50 was under 50 nM.

How did the IC50 turn out when Cc1cccc(NC(=O)c2cccc3c2CC[C@@H]3Oc2cnc3cn(C)nc3c2)c1F [Compound 76aj] was run?
Its IC50 is under 50 nM.

For Cn1cc(-c2cncc(O[C@H]3CCc4c(C(=O)Nc5cccc(C(C)(C)N)c5)cccc43)c2)cn1 [Compound 19m], which IC50 is on record?
Its IC50 is 200 to 500 nM.

Which IC50 does the source give for Cn1cc(-c2cncc(N[C@H]3CCc4c(C(=O)Nc5ccc(C(F)(F)F)cc5)cccc43)c2)cn1 [Compound 14al] here?
The IC50 was under 50 nM.

Cc1c(Nc2cccc3c2CC[C@@H]3Nc2cncc(Cl)c2)noc1C(C)(C)C [Compound 40d, (S)—N^4-(5-(ter-butyl)-4-methylisoxazol-3-yl)-N^1-(5-chloropyridin-3-yl)-2,3-dihydro-1H-indene-1,4-diamine] was tested. Which IC50 did it give?
The IC50 was 50 to 200 nM.

Cc1cccc(NC(=O)c2cccc3c2CC[C@@H]3Nc2cncc(-c3cnn(C)c3)n2)c1 [Compound 26, (S)-1-((6-(1-methyl-1H-pyrazol-4-yl)pyrazin-2-yl)amino)-N-(m-tolyl)-2,3-dihydro-1H-indene-4-carboxamide] was tested. Which IC50 did it give?
The IC50 was under 50 nM.

For Cn1cc2ncc(N[C@H]3CCc4c(Nc5noc(C67CC(F)(C6)C7)n5)cccc43)cc2n1 [Compound 93r], which IC50 is on record?
Its IC50 is under 50 nM.

Cn1cc2ncc(N[C@H]3CCc4c(Nc5noc(C6(C)COC6)n5)cccc43)cc2n1 [Compound 92, (S)—N^1-(2-methyl-2H-pyrazolo[4,3-b]pyridin-6-yl)-N^4-(5-(3-methyloxetan-3-7)-1,2,4-oxadiazol-3-yl)-2,3-dihydro-1H-indene-1,4-d] was tested. Which IC50 did it give?
Its IC50 is over 500 nM.

With Cn1cc(-c2cncc(N[C@H]3CCc4c(Nc5nc(C(C)(C)C)cs5)cccc43)n2)cn1 [Compound 36c] as the compound, how does the IC50 read?
Its IC50 is under 50 nM.

How did the IC50 turn out when CN1CCC[C@@H]1c1nc(Nc2cccc3c2CC[C@@H]3Nc2cnc3cn(C)nc3c2)no1 [Compound 93b] was run?
Its IC50 is 50 to 200 nM.

Cn1cc2ncc(N[C@H]3CCc4c(CNc5nc(C6CC6)cs5)cccc43)cc2n1 [Compound 96d] was tested. Which IC50 did it give?
The IC50 was over 500 nM.

With COC(=O)Nc1cccc2c1CC[C@@H]2Nc1cncc(-c2cnn(C)c2)n1 [Compound 29, methyl(S)-(1-((6-(1-methyl-1H-pyrazol-4-yl)pyrazin-2-yl)amino)-2,3-dihydro-1H-inden-4-yl) carbamate] as the compound, how does the IC50 read?
Its IC50 is over 500 nM.

With Cn1cc(-c2cncc(N[C@H]3CCc4c(Nc5cc(C(F)(F)F)nn5C)cccc43)c2)cn1 [Compound 42q] as the compound, how does the IC50 read?
Its IC50 is over 500 nM.

Which IC50 does the source give for O=C(Nc1cccc(C2CC2)c1)c1cccc2c1CC[C@@H]2Nc1cnc2ccnn2c1 [Compound 74g] here?
The IC50 was under 50 nM.
